The values below come from PMC12320245 (International Journal of Biological Sciences, 2025).

Data set [1] has as its system PDE4 in primary hippocampal neurons. Nature of the data set: Scratch injury: PDE4 expression (immunocytochemistry and Western blot). The data set is classed as cell-based, rat. Particulars: scratch-AMX vs scratch-vehicle, 24 hours after scratch. How it is done:
Primary hippocampal neurons were obtained from embryonic day 18 (E18) Sprague-Dawley rat embryos. Pregnant rats were anesthetized using 2-3% isoflurane in a gas mixture of 70% nitrous oxide and 30% oxygen. Following euthanasia, the hippocampi were carefully dissected, minced, and enzymatically dissociated using TrypLE Express (Gibco, NY, USA) for 10 minutes at 37°C. The tissue was further mechanically dissociated using fire-polished glass pipettes, and the resulting cell suspension was filtered through a 70 μm cell strainer to remove debris. Neurons were seeded at a density of 3 × 10^5 cells per well in 24-well plates pre-coated with poly-L-lysine (Sigma-Aldrich, Saint Louis, MO, USA). Cells were maintained in neurobasal medium supplemented with B-27 (Thermo Fisher Scientific, Waltham, MA, USA), GlutaMAX (Gibco), and penicillin-streptomycin. […]
A scratch injury model was used to mimic TBI in vitro. […] After the treatment period, neuronal damage and recovery were assessed using appropriate evaluation methods.
Twenty-four hours after the scratch injury, cells were lysed using RIPA buffer (IBS-BR002, iNtRON, Republic of Korea) supplemented with protease and phosphatase inhibitors (Sigma, USA). […] Protein detection was performed using a chemiluminescence bioimaging device (Amersham Imager 680, Cytiva, MA, USA), and the results were analyzed to determine protein expression levels. […]

For data set [2] the following is noted: neuroinflammation or brain injury; cited from earlier work.
The subject of a further data set is hippocampus of TBI rats. Put plainly: Controlled cortical impact TBI: NeuN immunohistochemistry. The class given is in vivo, rat. As to conditions: CA1, CA3, GCL, hilus, 2 weeks post-TBI, vs TBI-vehicle. How it is done:
This study used male Sprague-Dawley rats weighing 300-350 g and aged 8 weeks, obtained from DBL Co. (Chungcheongbuk-do, Republic of Korea). The rats were housed in a controlled environment with a temperature of 20 ± 2 °C, a relative humidity of 55 ± 5%, and a 12-hour light/dark cycle. They were provided ad libitum access to food and water. To minimize stress associated with transportation, animals underwent a one-week acclimatization period before the start of the experiments. All experimental procedures were conducted in compliance with the guidelines of the National Institutes of Health for the care and use of laboratory animals and were approved by the Hallym University Institutional Animal Care and Use Committee (protocol # Hallym 2022-23, approved on July 15, 2022). This manuscript follows the principles outlined in the Animal research: reporting in vivo experiments (ARRIVE) guidelines.
A controlled cortical impact (CCI) model was used to induce TBI in rats. Animals were anesthetized with 1-1.5% isoflurane in a 30:70 oxygen-to-nitrous oxide mixture and securely positioned in a stereotaxic frame. A 3 mm craniotomy was performed using a portable drill at a site 2.8 mm lateral to the midline and 3.0 mm posterior to Bregma. […]

For `CC(C)c1ccc2oc3nc(N)c(C(=O)O)cc3c(=O)c2c1` [AMX, amlexanox], the PDE4 levels result in data set [1] was “significantly reduced”. The “crossing of the BBB” value in data set [2] is listed as “can cross the BBB under pathological conditions”. The NeuN-positive cell counts result in the data set with hippocampus of TBI rats is on record as “higher NeuN-positive cell counts”.
